Data on 15 compounds can be found in ChEMBL document CHEMBL5370674, “Optimization of mTOR Inhibitors Using Property-Based Drug Design and Free-Wilson Analysis for Improved In Vivo Efficacy” (ACS Med Chem Lett, 2023).

Series [1] can be described thus: Apparent intrinsic clearance in human liver microsomes. The note with it: read-out: CLH(app). It counts as ADME, Microsome.
The nature of series [2]: Fraction absorbed in rat at 4 mg/kg, po. The series is classed as ADME, organism-based. The note with it: in vivo, read-out: Fabs.
A short description of series [3]: Toxicity in Balb/c Nu/Nu mouse xenografted with human A549 cells assessed as reduction in body weight at 2 to 6 mg/kg, po administrated for 14 days. The series is classed as organism-based. Also noted: scale not given: the % may be the effect or the level left. Conditions: in vivo, 336 h, dose 2-6 mg/kg, time 14 day.
Series [4] relates to A549. Kind of series: Antitumor activity against human A549 cells xenografted in BALB/c Nu/Nu mouse assessed as tumor growth inhibition at 2 mg/kg, po administrated for 14 days relative to control. It counts as functional. The note with it: A549, 336 h, time 14 day, read-out: TGI.
The next series concerns the target Cytochrome P450 3A4 (Homo sapiens, UniProt P08684). Kind of series: Inhibition of CYP3A4 (unknown origin). It counts as ADME.
A further series addresses Cytochrome P450 2C9 (Homo sapiens, UniProt P11712). The experiment in a line: Inhibition of CYP2C9 (unknown origin). The series is classed as ADME.
Another series concerns the target T1, Cytochrome P450 1A2 (Homo sapiens, UniProt P05177).
T1 sequence (P05177 whole entry): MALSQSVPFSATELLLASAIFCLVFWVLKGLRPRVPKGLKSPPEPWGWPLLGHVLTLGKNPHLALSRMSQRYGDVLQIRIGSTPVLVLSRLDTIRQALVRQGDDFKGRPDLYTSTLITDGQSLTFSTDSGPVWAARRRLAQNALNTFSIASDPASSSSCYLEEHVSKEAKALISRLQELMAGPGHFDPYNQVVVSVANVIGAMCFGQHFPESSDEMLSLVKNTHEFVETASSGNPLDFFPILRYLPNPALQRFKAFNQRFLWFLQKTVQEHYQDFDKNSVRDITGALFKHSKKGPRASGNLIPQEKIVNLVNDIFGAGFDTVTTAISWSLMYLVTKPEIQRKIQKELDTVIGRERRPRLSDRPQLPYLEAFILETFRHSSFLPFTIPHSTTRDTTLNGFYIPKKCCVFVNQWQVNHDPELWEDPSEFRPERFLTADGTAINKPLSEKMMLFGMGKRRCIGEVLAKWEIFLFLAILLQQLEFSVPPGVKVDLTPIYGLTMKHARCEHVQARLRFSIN
Kind of series: Inhibition of CYP1A2 (unknown origin). It counts as ADME.

Another series has as its target Cytochrome P450 2D6 (Homo sapiens, UniProt P10635). Kind of series: Inhibition of CYP2D6 (unknown origin). The series is classed as ADME.
The target of a further series is T2, Cytochrome P450 2C8 (Homo sapiens, UniProt P10632).
T2 sequence (P10632 whole entry): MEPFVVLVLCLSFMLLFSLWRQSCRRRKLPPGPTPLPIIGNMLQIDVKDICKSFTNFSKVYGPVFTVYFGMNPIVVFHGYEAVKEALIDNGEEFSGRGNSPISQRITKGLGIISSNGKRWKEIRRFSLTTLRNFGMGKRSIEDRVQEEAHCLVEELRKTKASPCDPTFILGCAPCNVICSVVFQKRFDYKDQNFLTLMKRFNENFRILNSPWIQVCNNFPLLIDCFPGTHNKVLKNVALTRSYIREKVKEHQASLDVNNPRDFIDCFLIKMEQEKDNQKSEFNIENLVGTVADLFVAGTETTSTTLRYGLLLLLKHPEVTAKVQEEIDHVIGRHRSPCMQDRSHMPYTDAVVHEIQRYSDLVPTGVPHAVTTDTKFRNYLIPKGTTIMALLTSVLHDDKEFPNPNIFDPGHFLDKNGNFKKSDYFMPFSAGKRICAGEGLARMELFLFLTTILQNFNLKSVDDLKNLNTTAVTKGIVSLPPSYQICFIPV
The experiment in a line: Inhibition of CYP2C8 (unknown origin). The series is classed as ADME.

The target in another series is Cytochrome P450 2C19 (Homo sapiens, UniProt P33261). The experiment in a line: Inhibition of CYP2C19 (unknown origin). The series is classed as ADME.
Sequence of Cytochrome P450 2C19 (P33261 whole entry): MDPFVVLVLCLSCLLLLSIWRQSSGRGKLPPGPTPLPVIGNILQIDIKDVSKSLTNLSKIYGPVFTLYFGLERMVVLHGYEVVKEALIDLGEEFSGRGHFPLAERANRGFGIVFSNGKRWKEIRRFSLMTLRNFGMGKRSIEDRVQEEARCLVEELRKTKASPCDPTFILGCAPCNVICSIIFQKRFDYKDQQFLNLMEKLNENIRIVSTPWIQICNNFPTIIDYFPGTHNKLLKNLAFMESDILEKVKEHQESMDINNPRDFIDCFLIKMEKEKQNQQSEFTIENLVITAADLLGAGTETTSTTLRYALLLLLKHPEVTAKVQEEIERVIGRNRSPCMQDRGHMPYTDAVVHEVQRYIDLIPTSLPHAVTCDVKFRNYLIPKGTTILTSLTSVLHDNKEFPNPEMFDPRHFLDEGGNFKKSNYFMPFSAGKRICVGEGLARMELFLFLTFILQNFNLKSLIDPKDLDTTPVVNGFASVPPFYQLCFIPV
Series [5] in a line: Toxicity in Balb/c Nu/Nu mouse xenografted with human A549 cells assessed as reduction in body weight at 30 mg/kg, po administrated for 14 days. Also noted: scale not given: the % may be the effect or the level left. The note with it: in vivo, 336 h, time 14 day. It counts as organism-based.
The test system of series [6] is A549. The experiment in a line: Antitumor activity against human A549 cells xenografted in BALB/c Nu/Nu mouse assessed as tumor growth inhibition at 30 mg/kg, po administrated for 14 days relative to control. The series is classed as functional. The note with it: A549, 336 h, time 14 day, read-out: TGI.
The nature of series [7]: Intrinsic clearance in human liver microsomes. The series is classed as ADME, Microsome. The note with it: read-out: CLH.
Series [8] can be described thus: Selectivity ratio of IC50 for inhibition of PI3Kalpha (unknown origin) to IC50 for inhibition of recombinant human GST-tagged mTOR (1360 to 2549 residues) expressed in insect cells.

Structures are written as SMILES. Where only a bound is given, the exact number is not on record here.

Sequence of Cytochrome P450 2D6 (P10635 whole entry): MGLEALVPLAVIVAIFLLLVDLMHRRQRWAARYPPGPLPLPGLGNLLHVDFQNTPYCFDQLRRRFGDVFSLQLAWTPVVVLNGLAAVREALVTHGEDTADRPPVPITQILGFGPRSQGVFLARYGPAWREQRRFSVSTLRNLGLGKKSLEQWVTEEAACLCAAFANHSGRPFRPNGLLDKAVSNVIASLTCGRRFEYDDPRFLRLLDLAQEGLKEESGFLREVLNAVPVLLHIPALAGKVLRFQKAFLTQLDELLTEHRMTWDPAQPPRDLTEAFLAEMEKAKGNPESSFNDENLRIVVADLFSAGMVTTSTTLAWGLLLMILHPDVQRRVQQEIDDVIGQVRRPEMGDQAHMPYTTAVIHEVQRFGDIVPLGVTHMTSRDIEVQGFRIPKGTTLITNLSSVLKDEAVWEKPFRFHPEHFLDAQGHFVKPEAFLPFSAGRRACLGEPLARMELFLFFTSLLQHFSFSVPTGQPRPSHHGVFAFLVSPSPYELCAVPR
Sequence of Cytochrome P450 3A4 (P08684 whole entry): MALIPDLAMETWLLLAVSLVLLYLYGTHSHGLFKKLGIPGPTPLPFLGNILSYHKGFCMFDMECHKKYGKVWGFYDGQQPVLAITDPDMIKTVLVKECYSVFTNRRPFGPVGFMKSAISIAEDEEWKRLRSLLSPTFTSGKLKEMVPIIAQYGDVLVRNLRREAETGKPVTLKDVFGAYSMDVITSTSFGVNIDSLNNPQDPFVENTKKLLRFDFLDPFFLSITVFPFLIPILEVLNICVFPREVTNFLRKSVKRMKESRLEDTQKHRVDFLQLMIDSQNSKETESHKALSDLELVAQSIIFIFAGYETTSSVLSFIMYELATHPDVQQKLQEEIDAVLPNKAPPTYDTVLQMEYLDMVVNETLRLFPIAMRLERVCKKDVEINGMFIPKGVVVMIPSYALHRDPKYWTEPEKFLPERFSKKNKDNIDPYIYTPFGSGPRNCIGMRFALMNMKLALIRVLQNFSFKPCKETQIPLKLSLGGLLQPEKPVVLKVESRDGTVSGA
Sequence of Cytochrome P450 2C9 (P11712 whole entry): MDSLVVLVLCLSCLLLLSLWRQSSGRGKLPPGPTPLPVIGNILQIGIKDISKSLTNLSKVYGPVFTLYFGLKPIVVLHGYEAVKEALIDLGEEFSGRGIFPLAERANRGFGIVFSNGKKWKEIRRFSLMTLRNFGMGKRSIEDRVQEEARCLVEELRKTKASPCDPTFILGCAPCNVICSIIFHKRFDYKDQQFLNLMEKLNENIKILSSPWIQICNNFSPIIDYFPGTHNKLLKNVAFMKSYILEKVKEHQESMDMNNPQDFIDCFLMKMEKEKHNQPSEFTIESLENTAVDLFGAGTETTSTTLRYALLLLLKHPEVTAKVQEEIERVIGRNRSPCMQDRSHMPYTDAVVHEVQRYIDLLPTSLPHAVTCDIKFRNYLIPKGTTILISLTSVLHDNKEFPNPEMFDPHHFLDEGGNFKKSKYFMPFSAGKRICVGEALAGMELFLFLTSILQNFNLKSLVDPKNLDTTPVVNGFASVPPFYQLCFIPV

Turning to `Cc1cccc2c(-c3ncc4c(n3)N3CCOC[C@@]3(C)C(=O)N4[C@H]3CC[C@@H](O)CC3)c[nH]c12`, the CLint scaled in [1] was 7 mL/min/kg. For the compound `C[C@@]12COCCN1c1nc(-c3cnc4[nH]ccc4c3)ncc1N(C1CCOC1)C2=O` (mixture of isomers), in [1], the CLint scaled turned out to be 12 mL/min/kg. As to `C[C@@]12COCCN1c1nc(-c3cccc4[nH]ccc34)ncc1N([C@H]1CC[C@@H](O)CC1)C2=O`, in series [1], the CLint scaled was 6 mL/min/kg. Still for that read-out and setting: for `Cc1cccc2c(-c3ncc4c(n3)N3CCOC[C@@]3(C)C(=O)N4[C@H]3CC[C@H](O)CC3)c[nH]c12` the value was 7 mL/min/kg. With `C[C@@]12COCCN1c1nc(-c3cccc4[nH]ccc34)ncc1N([C@H]1CC[C@H](O)CC1)C2=O`, the Fa in [2] was 100%. Moreover, in [3], the Activity is on record as below 20%. Also, in the series with A549 [4], the inhibition in vivo at 2 mg/kg was 100%. In the case of `Cc1cccc2c(-c3ncc4c(n3)N3CCOC[C@@]3(C)C(=O)N4C3(CCCO)CC3)c[nH]c12`, the CLint scaled in [1] came out at 6 mL/min/kg.

As for `C[C@@]12COCCN1c1nc(-c3cnc4[nH]ccc4c3)ncc1N(C1CCOCC1)C2=O`, in series [1], the CLint scaled is 6 mL/min/kg. For `Cc1ccc(-c2ncc3c(n2)N2CCOC[C@@]2(C)C(=O)N3[C@H]2CC[C@@H](O)CC2)c2cc[nH]c12`, the CLint scaled in series [1] came to 8 mL/min/kg.

For the compound `CC(=O)N1CCC(N2C(=O)[C@]3(C)COCCN3c3nc(-c4cccc5[nH]ccc45)ncc32)CC1`, the CLint scaled in series [1] stood at 6 mL/min/kg.

For `Cc1ccc(-c2ncc3c(n2)N2CCOC[C@@]2(C)C(=O)N3[C@H]2CC[C@H](O)CC2)c2cc[nH]c12`, in series [1], the CLint scaled turned out to be 6 mL/min/kg. `C[C@@]12COCCN1c1nc(-c3cnc4[nH]ccc4c3)ncc1N(C1(CCO)CC1)C2=O`: the CLint scaled in series [1] came to 11 mL/min/kg. As to `C[C@@]12COCCN1c1nc(-c3cccc4[nH]ccc34)ncc1N(C1CCOCC1)C2=O`, the IC50 against Cytochrome P450 3A4, against Cytochrome P450 2C9, at Cytochrome P450 1A2, against Cytochrome P450 2D6, against Cytochrome P450 2C8 and on Cytochrome P450 2C19 was above 40 µM throughout. In addition, in series [1], the CLint scaled was 10 mL/min/kg. In the case of `CC(F)(F)CN1C(=O)[C@]2(C)COCCN2c2nc(-c3ccc(NC(=O)NC4CC4)cc3)ncc21`, in [5], the Activity is reported as below 20%. Further, in the series on A549 [6], the inhibition in vivo at 30 mg/kg is 100%. For the same compound, the CLint scaled in series [7] was below 10 mL/min/kg. In addition, in series [8], the Ratio IC50 was above 50. As to `COCCCN1C(=O)[C@]2(C)COCCN2c2nc(-c3cnc4[nH]ccc4c3)ncc21`, the CLint scaled in series [1] is 32 mL/min/kg. Turning to `C[C@@]12COCCN1c1nc(-c3cnc4[nH]ccc4c3)ncc1N(C1CCN(S(C)(=O)=O)CC1)C2=O`, the CLint scaled in series [1] was 6 mL/min/kg.
